{"source": "paper PMC8472793", "about": "(Microorganisms, 2021)", "key": {"[1]": {"molecular_target": "T1, Pro1 (γ-glutamyl kinase, GK) (Saccharomyces cerevisiae, UniProt P32264)", "T1 sequence (P32264 1-428)": "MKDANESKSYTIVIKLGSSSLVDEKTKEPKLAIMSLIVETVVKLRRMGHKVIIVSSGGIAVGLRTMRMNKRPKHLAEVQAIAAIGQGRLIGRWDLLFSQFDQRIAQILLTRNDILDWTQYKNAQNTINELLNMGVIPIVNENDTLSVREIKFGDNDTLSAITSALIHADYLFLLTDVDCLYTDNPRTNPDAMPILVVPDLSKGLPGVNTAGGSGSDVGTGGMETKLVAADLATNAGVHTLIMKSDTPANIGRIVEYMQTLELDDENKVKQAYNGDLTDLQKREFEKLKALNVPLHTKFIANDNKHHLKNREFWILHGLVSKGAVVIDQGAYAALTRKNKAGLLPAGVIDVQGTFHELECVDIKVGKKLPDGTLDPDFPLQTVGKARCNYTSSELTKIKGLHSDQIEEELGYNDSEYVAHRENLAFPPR", "experiment": "PK/LDH-coupled ADP production, NADH oxidation at […] nm", "assay_type": "biochemical", "conditions": "10 mM MgCl2, 100 mM HEPES-NaOH pH 7.4, 30 °C, no proline"}, "[2]": {"molecular_target": "Pro1 (γ-glutamyl kinase, GK) (Saccharomyces cerevisiae, UniProt P32264, I150T)", "sequence (P32264 whole entry I150T)": "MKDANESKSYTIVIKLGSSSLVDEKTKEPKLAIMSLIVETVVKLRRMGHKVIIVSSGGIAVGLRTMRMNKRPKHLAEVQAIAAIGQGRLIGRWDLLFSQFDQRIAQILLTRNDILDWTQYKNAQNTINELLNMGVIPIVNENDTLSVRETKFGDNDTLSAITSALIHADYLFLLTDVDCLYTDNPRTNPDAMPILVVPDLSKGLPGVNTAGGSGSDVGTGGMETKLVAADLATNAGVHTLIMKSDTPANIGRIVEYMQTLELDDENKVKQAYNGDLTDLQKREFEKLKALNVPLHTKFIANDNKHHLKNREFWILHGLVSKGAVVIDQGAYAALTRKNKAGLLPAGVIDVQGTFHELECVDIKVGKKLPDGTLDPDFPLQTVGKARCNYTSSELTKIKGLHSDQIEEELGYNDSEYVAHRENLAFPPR", "experiment": "biochemical", "conditions": "read-out: relative activity at 500 mM proline"}, "[3]": {"molecular_target": "Pro1 (γ-glutamyl kinase, GK) (Saccharomyces cerevisiae, UniProt P32264, Q79H)", "sequence (P32264 whole entry Q79H)": "as the sequence (P32264 whole entry I150T) above, with Q79H, T150I counted along it", "experiment": "biochemical", "conditions": "read-out: relative activity at 500 mM proline"}, "[4]": {"molecular_target": "Pro1 (γ-glutamyl kinase, GK) (Saccharomyces cerevisiae, UniProt P32264, D143A)", "sequence (P32264 whole entry D143A)": "as the sequence (P32264 whole entry I150T) above, with D143A, T150I counted along it", "experiment": "biochemical", "conditions": "read-out: relative activity at 500 mM proline"}}}
{"smiles": "Nc1ncnc2c1ncn2[C@@H]1O[C@H](COP(=O)(O)OP(=O)(O)OP(=O)(O)O)[C@@H](O)[C@H]1O", "note": "[ATP]", "values": [{"measurement": "PK/LDH-coupled ADP production, NADH oxidation at 340 nm", "setting": "[1]; 400 mM sodium glutamate, ATP 5 mM", "value": "GK activity was measured by the production of ADP in an enzyme-coupled system"}]}
{"smiles": "O=C(O)[C@@H]1CCCN1", "note": "[proline]", "values": [{"measurement": "activity at 500000 µM", "setting": "[2]", "value": 50, "unit": "%"}, {"measurement": "activity at 500000 µM", "setting": "[3]", "value": "~96", "unit": "%"}, {"measurement": "activity at 500000 µM", "setting": "[4]", "value": "~95", "unit": "%"}]}
{"smiles": "N[C@@H](CCC(=O)O)C(=O)O", "note": "[sodium glutamate]", "values": [{"measurement": "PK/LDH-coupled ADP production, NADH oxidation at 340 nm", "setting": "[1]; 5 mM ATP, glutamate 400 mM", "value": "sodium glutamate was added to initiate the enzymatic reaction"}]}
